Structures are written as SMILES.

What is called IC50 is the concentration that gives 50% inhibition. Lower therefore signals higher potency.

T1 sequence (Q7Z2W7 whole entry): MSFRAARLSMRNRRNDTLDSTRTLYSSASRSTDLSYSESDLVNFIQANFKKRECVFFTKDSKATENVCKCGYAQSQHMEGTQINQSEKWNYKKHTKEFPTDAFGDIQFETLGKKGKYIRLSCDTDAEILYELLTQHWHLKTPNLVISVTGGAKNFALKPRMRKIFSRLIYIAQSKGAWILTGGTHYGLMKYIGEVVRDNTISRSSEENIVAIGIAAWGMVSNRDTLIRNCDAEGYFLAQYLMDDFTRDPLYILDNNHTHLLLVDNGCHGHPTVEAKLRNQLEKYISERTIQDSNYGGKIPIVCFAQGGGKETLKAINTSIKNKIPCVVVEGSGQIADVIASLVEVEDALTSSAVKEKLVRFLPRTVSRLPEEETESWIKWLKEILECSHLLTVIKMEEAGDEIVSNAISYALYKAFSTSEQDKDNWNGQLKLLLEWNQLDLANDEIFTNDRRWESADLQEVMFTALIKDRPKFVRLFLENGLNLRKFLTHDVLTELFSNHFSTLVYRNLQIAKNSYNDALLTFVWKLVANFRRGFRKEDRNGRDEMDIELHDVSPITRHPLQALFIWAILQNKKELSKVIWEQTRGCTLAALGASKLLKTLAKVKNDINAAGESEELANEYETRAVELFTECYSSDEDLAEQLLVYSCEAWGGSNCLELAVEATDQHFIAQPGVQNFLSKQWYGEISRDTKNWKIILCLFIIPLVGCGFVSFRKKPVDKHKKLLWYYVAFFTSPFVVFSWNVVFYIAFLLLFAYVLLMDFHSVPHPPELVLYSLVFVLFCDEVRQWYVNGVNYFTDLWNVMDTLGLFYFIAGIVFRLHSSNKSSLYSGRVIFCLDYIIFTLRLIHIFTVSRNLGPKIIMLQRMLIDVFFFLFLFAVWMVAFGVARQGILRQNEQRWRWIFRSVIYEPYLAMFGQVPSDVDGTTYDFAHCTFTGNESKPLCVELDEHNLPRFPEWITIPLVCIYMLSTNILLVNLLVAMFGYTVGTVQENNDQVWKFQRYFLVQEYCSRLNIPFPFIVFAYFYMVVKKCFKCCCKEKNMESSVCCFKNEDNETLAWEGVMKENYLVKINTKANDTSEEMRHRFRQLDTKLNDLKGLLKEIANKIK

The assay concerns the target T1, human TRPM8 (Homo sapiens, UniProt Q7Z2W7).
T1 construct: expressed in transfected cells
The assay can be described thus: In Vitro human TRPM8 Functional Assay (intracellular Ca2+, Fluo4, FDSS, menthol activation). The assay is classed as cell-based. Particulars: HEK293 cells stably expressing human TRPM8; activation with L-(-)-Menthol; 11-point dose-response. The gist of the method:
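Fluo4-loaded HEK293 cells stably expressing TRPM8 were preincubated with compound for 5 min at room temperature, then stimulated with L-menthol (20 μl of 90 μM stock) while fluorescence was read. IC50 values come from 11-point curves fitted to the mean of duplicate wells.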
Consider `O=C(O)c1ccc(S(=O)(=O)N(Cc2ccc(-c3ccco3)cc2)c2ncc(C(F)(F)F)cc2Cl)cc1` [Example 157, 4-(N-(3-Chloro-5-(trifluoromethyl)pyridin-2-yl)-N-(4-(furan-2-yl)-benzyl)sulfamoyl)benzoic acid], for which the IC50 is < 1000 nM.

Consider `O=C(O)c1ccc(S(=O)(=O)N(Cc2ccc(Cl)c(C(F)(F)F)c2)c2ncc(Cl)cc2Cl)cc1` [Example 66, 4-(N-(4-Chloro-3-(trifluoromethyl)benzyl)-N-(3,5-dichloropyridin-2-yl)sulfamoyl)benzoic acid], for which the IC50 is < 1000 nM.

As for `O=C(O)c1ccc(Cl)c(S(=O)(=O)N(Cc2ccccc2)c2ccc(F)cc2)c1` [Example 123, 3-(N-Benzyl-N-(4-fluorophenyl)sulfamoyl)-4-chlorobenzoic acid], the IC50 lay within 10000 to 30000 nM.

With `O=C(O)c1ccc(S(=O)(=O)N(CCc2ccccc2)c2ncc(C(F)(F)F)cc2Cl)cc1` [Example 148, 4-(N-(3-Chloro-5-(trifluoromethyl)pyridin-2-yl)-N-phenethylsulfamoyl)benzoic acid], the IC50 was < 1000 nM.

Compound `COc1ccc(N(C(C)c2ccccc2F)S(=O)(=O)c2ccc(F)c(Cl)c2)cc1` (stereo not drawn) [Example 97, 3-Chloro-4-fluoro-N-(1-(2-fluorophenyl)ethyl)-N-(4-methoxyphenyl) benzenesulfonamide] came in with an IC50 of 1000 to 10000 nM.

As to `Cc1cc(C(F)(F)F)cnc1N(Cc1ccccc1)S(=O)(=O)c1ccc(C(=O)O)cc1` [Example 153, 4-(N-Benzyl-N-(3-methyl-5-(trifluoromethyl)pyridin-2-yl)sulfamoyl)benzoic acid], the IC50 was < 1000 nM.

`COc1ccc(S(=O)(=O)N(Cc2ccccc2)c2ccccn2)cc1` [Example 132, N-Benzyl-4-methoxy-N-(pyridin-2-yl)benzene-sulfonamide]: the IC50 fell in the range of 1000 to 10000 nM.

As for `O=C(O)c1ccc(S(=O)(=O)N(Cc2cccc(-c3ccccc3)c2)c2ncc(C(F)(F)F)cc2Cl)cc1` [Example 164, 4-(N-[(1,1′-Biphenyl]-3-ylmethyl)-N-(3-chloro-5-(trifluoromethyl)pyridin-2-yl)sulfamoyl)benzoic acid], the IC50 is < 1000 nM.

For the compound `COc1ccc(OC)c(C(C)N(c2cccc(F)c2)S(=O)(=O)c2cc(F)ccc2C)c1` (stereo not drawn) [Example 136, N-(1-(2,5-Dimethoxyphenyl)ethyl)-5-fluoro-N-(3-fluorophenyl)-2-methyl-benzenesulfonamide], the IC50 lay within 1000 to 10000 nM.

As for `Cc1ccc(S(=O)(=O)N(Cc2ccccc2)c2ccccn2)cc1` [Example 106, N-Benzyl-4-methyl-N-(pyridin-2-yl) benzenesulfonamide], the IC50 is 1000 to 10000 nM.

Turning to `O=C(O)c1ccc(S(=O)(=O)N(Cc2ccccc2C(F)(F)F)c2ncc(Cl)cc2Cl)cc1` [Example 64, 4-(N-(3,5-Dichloropyridin-2-yl)-N-(2-(trifluoromethyl)benzyl)sulfamoyl)benzoic acid], the IC50 is < 1000 nM.

`COc1ccc(C(C)N(c2ccc(OC)cc2)S(=O)(=O)c2ccc(C)c(Cl)c2)cc1` (stereo not drawn) [Example 137, 3-Chloro-N-(4-methoxyphenyl)-N-(1-(4-methoxy-phenyl)ethyl)-4-methyl benzenesulfonamide]: the 50% inhibitory concentration (IC50) was 10000 to 30000 nM.

Consider `COc1cccc(C(C)N(c2cccc(OC)c2)S(=O)(=O)c2ccc(C)c(Cl)c2)c1` (stereo not drawn) [Example 102, 3-Chloro-N-(3-methoxyphenyl)-N-(1-(3-methoxy-phenyl)ethyl)-4-methyl benzenesulfonamide], for which the IC50 lay within 1000 to 10000 nM.

In the case of `O=C(O)c1ccc(S(=O)(=O)N(CCN2CCOCC2)c2ccc(C(F)(F)F)cc2Cl)cc1` [Example 81, 4-(N-(2-Chloro-4-(trifluoromethyl)phenyl)-N-(2-morpholinoethyl)sulfamoyl)benzoic acid], the IC50 lay in the range of 1000 to 10000 nM.

Consider `O=C(O)c1ccc(S(=O)(=O)N(Cc2c(F)cccc2F)c2ncc(C(F)(F)F)cc2Cl)cc1` [Example 44, 4-(N-(3-Chloro-5-(trifluoromethyl)pyridin-2-yl)-N-(2,6-difluorobenzyl)sulfamoyl)benzoic acid], for which the IC50 was < 1000 nM.

Source of the values: patent publication US20120094964A1, “SULFAMOYL BENZOIC ACID DERIVATIVES AS TRPM8 ANTAGONISTS” (priority 2009, published 2012).
